Measurements as given in patent US20180289739A1, “Combination Therapy for Treating Proliferative Diseases” (BIONOMICS LIMITED, priority 2009, published 2018).

How the values were obtained:
MCF-7 = test: Growth inhibition of cancer cell line, Sulforhodamine B (SRB) or Systmex cell counting (CC) assay; assay type: cell-based; settings: Homo sapiens, MCF7, concentration required to inhibit net cell growth by 50%
[1] = tested on: Human umbilical vein endothelial cells (HUVECs), normal quiescent type endothelial cells (Norm); test: Proliferation Assay - Quiescent Endothelium (MTT); assay type: cell-based; settings: HUVEC, 48 hrs
Description: Proliferation Assay—Quiescent Endothelium:
(§1) Human umbilical vein endothelial cells (CC-2519, Clonetics) were plated at 15000 cells/well in EBM2 (CC-3156, Clonetics)+0.5% FBS (CC-4101A, Clonetics)+GA-1000 (CC-4381A, Clonetics) in a 96 well plate in triplicate. Cells were cultured overnight at 37° C. 5% CO2. Medium was subsequently replaced with fresh medium including the compound or negative control. Cells were cultured for a period of 48 hrs. An MTT assay was performed to measure changes in cell numbers. Briefly, 20 μl of MTT reagent was added to cells containing 100 μl of EBM2+0.5% FBS and incubated at 37° C. for 2 hours. Absorbance was measured at 492 nm.

[2] = tested on: Human umbilical vein endothelial cells (HUVECs), tumour type activated endothelial cells (Tum); test: Proliferation Assay - Activated Endothelium (MTT); assay type: cell-based; settings: for IC50: Homo sapiens, HUVEC, tumour type activated endothelial cells, 48 hrs; for Potency against activated (tumour) versus quiescent (normal) endothelial cells: activated compared with quiescent endothelial cells
Description: Proliferation Assay—Activated Endothelium:
as §1, with “2500” for “15000”, “EGM2 (CC-3162,” for “EBM2 (CC-3156, Clonetics)+0.5% FBS (CC-4101A, Clonetics)+GA-1000 (CC-4381A,”, “EGM2” for “EBM2+0.5% FBS”

tubulin = test: Tubulin polymerisation inhibition; assay type: biochemical
[3] = tested on: MDA-MB-231 solid orthotopic tumours; test: Tumour Growth Inhibition, MDA-MB-231 orthotopic tumours; assay type: in vivo, Balb/c nu/nu mice; settings: 40 mg/kg i.v., two cycles; monitored up to 72 days; vs vehicle, p<0.001 from day 4 to Day 70
Description: Tumour Growth Inhibition:
Balb/c nu/nu mice bearing MDA-MB-231 solid orthotopic tumours were treated with compound Example 2 at 40 mg/kg. Animals were i.v. dosed with a total of two cycles of Example 2 treatment. Each cycle was dosing on […] followed by a three week no-dosing period. Tumour growth represented as a ratio to initial tumour volume is shown over a total of 72-days.
Tumour growth as well as animal health were monitored for up to 72 days post-day 1 of treatment. […] Significant differences in tumour growth between Example 2 treated (n=64) and vehicle treated (n=20) animals were observed as early as day 4 (p<0.001; unpaired t-test; Prism® analysis) through to Day 70.

| Compound | IC50 (MCF-7) [nM] | IC50 [1] [nM] | IC50 [2] [nM] | Potency against activated (tumour) versus quiescent (normal) endothelial cells [2] | Tubulin polymerisation inhibition (tubulin) | Tumour growth (ratio to initial tumour volume) [3] |
| --- | --- | --- | --- | --- | --- | --- |
| COc1ccc2c(C(=O)c3cc(OC)c(OC)c(OC)c3)c(Br)oc2c1 [Comparator D] | 500 | 100 to 1000 | 100 to 1000 |  |  |  |
| COc1ccc(/C=C\c2cc(OC)c(OC)c(OC)c2)cc1O [Combretastatin A4] |  |  |  | equally potent against quiescent and activated endothelial cells |  |  |
| COc1ccc2c(C(=O)c3cc(OC)c(OC)c(OC)c3)coc2c1 [Comparator C] | 55 | 10 to 100 | 10 to 100 |  |  |  |
| COc1cc(C(=O)c2c(C)oc3c(O)c(OC)ccc23)cc(OC)c1OC [Example 1, 2-Methyl-7-hydroxy-3-(3,4,5-trimethoxybenzoyl)-6-methoxybenzofuran] | 2 | 10 to 100 | 0.1 to 1 | high potency towards tumour endothelial cells (activated) over normal endothelial cells (quiescent) | potent tubulin polymerisation inhibitor |  |
| COc1cc(C(=O)c2c(C)oc3c(OP(=O)([O-])[O-])c(OC)ccc23)cc(OC)c1OC.[Na+].[Na+] [Example 2, Disodium 6-methoxy-2-methyl-3-(3,4,5-trimethoxybenzoyl)benzofuran-7-yl Phosphate] |  |  |  |  |  | clearly show tumour growth inhibition |
